Assay results reported in ChEMBL document CHEMBL1152372, “A stabilized demethoxyviridin derivative inhibits PI3 kinase” (Bioorg Med Chem Lett, 2009).

Key:
[1] = Stability in PBS at pH 7.4 assessed as half life at 1.5 mM by HPLC; assay type: physicochemical; conditions: buffer, pH 7.4, 1500 µM
[2] = Stability in PBS at pH 7.4 assessed as half life at 1.5 mM by HPLC in presence of glycine; assay type: physicochemical; conditions: buffer, pH 7.4, 1500 µM
[3] = Stability in RPMI culture media assessed as half life at 1.5 mM by HPLC; assay type: physicochemical; conditions: 1500 µM
[4] = Stability in PBS at pH 7.4 assessed as half life at 1.5 mM by HPLC in presence of proline; assay type: physicochemical; conditions: buffer, pH 7.4, 1500 µM
[5] = Stability in PBS at pH 7.4 assessed as half life at 1.5 mM by HPLC in presence of NAc-lysine; assay type: physicochemical; conditions: buffer, pH 7.4, 1500 µM
[6] = biological target: Phosphatidylinositol 4,5-bisphosphate 3-kinase catalytic subunit alpha isoform (Homo sapiens, UniProt P42336); test: Inhibition of PI3 kinase
Chain of Phosphatidylinositol 4,5-bisphosphate 3-kinase catalytic subunit alpha isoform (P42336 whole entry, canonical isoform): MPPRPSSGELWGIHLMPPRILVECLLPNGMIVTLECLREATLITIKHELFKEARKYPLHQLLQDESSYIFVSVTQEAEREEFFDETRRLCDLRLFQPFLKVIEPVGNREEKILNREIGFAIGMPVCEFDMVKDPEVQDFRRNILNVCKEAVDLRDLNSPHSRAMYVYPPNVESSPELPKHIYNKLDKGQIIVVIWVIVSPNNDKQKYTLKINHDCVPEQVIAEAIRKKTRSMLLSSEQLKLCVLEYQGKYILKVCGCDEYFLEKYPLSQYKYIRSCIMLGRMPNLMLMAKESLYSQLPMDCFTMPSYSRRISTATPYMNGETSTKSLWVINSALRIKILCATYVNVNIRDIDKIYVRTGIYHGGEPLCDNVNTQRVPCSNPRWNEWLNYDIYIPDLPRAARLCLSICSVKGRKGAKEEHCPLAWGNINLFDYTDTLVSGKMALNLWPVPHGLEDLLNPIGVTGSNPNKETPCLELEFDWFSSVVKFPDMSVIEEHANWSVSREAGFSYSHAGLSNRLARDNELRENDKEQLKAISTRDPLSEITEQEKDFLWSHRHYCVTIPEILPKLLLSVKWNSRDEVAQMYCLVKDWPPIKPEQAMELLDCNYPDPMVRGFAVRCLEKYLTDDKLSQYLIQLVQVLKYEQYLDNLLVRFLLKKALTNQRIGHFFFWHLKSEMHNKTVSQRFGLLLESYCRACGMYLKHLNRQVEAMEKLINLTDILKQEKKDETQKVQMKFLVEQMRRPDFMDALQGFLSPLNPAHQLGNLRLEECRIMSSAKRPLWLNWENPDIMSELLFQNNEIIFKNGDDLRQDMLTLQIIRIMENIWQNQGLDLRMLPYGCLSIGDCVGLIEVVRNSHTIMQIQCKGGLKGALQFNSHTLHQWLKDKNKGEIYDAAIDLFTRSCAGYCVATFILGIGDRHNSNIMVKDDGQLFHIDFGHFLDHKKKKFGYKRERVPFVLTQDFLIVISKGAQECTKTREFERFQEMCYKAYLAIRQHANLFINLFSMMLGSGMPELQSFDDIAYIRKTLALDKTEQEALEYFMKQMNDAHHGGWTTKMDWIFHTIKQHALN

Compound	t1/2 [1] [h]	t1/2 [2] [min]	t1/2 [3] [min]	t1/2 [4] [min]	t1/2 [5] [min]	IC50 [6] [nM]
C[C@@]12c3ccc4c(c3C(=O)c3occ(c31)C(=O)C[C@H]2O)CCC4=O [DEMETHOXYVIRIDIN]	0.433	0.99	0.47	0.59	0.61	1
COC[C@H]1OC(=O)/C(=C\NCCCCC(NC(C)=O)C(=O)O)C2=C(O)C(=O)C3=C([C@H](OC(C)=O)C[C@]4(C)C(=O)CC[C@@H]34)[C@]21C (stereo partly drawn)	–	–	–	–	–	> 1000
COC[C@H]1OC(=O)/C(=C\N2CCCC2C(=O)O)C2=C(O)C(=O)C3=C([C@H](OC(C)=O)C[C@]4(C)C(=O)CC[C@@H]34)[C@]21C (stereo partly drawn)	–	–	–	–	–	68
COC[C@H]1OC(=O)c2coc3c2[C@@]1(C)C1=C(C3=O)[C@@H]2CCC(=O)[C@@]2(C)C[C@H]1OC(C)=O [WORTMANNIN]	57.83	4.1	0.99	1.5	18.4	–
C[C@@]12c3ccc4c(c3C(=O)c3occ(c31)C(=O)C[C@H]2OC(=O)CCC(=O)O)CCC4=O	2	13.5	0.43	108	23	20
C[C@]12C(=C(O)C(=O)c3c1ccc1c3CCC1=O)/C(=C/NCC(=O)O)C(=O)C[C@H]2OC(=O)CCC(=O)O	3.63	–	64	126	94	–
